target: T1, human calcium receptor (Homo sapiens, UniProt P41180); assay: Calcium Receptor Inhibitor Assay (block of intracellular Ca2+ increase elicited by extracellular Ca2+, fluo-3); type: cell-based; settings: HEK 293 4.0-7 cells stably expressing the human calcium receptor; 10 uM was the limit of the assay; read-out: IC50 for blocking increases of intracellular Ca2+ elicited by extracellular Ca2+
T1 construct: expressed in transfected cells; host or cells: HEK 293 4.0-7
T1 sequence (P41180 20-1078): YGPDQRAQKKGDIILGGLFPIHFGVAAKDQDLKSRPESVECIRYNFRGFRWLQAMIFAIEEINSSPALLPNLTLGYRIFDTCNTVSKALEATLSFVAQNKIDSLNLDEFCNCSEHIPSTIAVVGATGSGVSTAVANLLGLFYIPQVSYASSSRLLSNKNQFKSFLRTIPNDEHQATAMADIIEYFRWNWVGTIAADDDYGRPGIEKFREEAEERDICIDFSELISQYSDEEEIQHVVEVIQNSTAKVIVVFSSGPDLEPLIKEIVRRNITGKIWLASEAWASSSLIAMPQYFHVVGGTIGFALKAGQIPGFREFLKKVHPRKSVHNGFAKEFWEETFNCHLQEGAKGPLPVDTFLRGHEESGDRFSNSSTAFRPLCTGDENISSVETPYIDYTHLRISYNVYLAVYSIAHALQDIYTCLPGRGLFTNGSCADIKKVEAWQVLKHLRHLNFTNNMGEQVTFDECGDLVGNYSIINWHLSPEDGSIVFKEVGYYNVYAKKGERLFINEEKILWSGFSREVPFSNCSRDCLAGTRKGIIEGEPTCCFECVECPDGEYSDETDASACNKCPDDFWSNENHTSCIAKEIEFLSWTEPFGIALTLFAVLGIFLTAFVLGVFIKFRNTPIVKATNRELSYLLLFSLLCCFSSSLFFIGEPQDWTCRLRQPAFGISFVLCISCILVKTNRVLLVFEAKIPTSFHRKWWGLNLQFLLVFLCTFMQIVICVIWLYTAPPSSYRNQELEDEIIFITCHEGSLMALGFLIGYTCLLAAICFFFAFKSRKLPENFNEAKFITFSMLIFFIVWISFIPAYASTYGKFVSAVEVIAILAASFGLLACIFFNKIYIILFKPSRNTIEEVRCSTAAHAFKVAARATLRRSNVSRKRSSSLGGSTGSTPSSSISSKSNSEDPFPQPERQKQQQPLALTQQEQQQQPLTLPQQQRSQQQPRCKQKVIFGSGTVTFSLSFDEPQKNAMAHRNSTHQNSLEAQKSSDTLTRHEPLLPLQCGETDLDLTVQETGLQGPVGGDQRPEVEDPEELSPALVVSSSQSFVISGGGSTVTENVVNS
Experimental: Calcilytic activity was measured by determining the IC50 of the test compound for blocking increases of intracellular Ca^2+ elicited by extracellular Ca^2+ in HEK 293 4.0-7 cells stably expressing the human calcium receptor. HEK 293 4.0-7 cells were constructed as described by Rogers et al., J. Bone Miner. Res. 10 Suppl. 1:S483, 1995 (hereby incorporated by reference to the extent required to conduct the present assay). Intracellular Ca^2+ increases were elicited by increasing extracellular Ca^2+ from 1 to 1.75 mM. Intracellular Ca^2+ was measured using fluo-3, a fluorescent calcium indicator.
Cells were maintained in T-150 flasks in selection media (DMEM supplemented with 10% fetal bovine serum and 200 ug/mL hygromycin B), under 5% CO2:95% air at 37° C. and were grown up to 90% confluency. The medium was decanted and the cell monolayer was washed twice with phosphate-buffered saline (PBS) kept at 37° C. After the second wash, 6 mL of 0.02% EDTA in PBS was added and incubated for 4 minutes at 37° C. Following the incubation, cells were dispersed by gentle agitation. Cells from 2 or 3 flasks were pooled and pelleted (100×g). The cellular pellet was resuspended in 10-15 mL of SPF-PCB+ and pelleted again by centrifugation. This washing was done twice.
Sulfate- and phosphate-free parathyroid cell buffer (SPF-PCB) contained 20 mM Na-Hepes, pH 7.4, 126 mM NaCl, 5 mM KCl, and 1 mM MgCl2. SPF-PCB was made up and stored at 4° C. On the day of use, SPF-PCB was supplemented with 1 mg/mL of D-glucose and 1 mM CaCl2 and then split into two fractions. To one fraction, bovine serum albumin (BSA; fraction V, ICN) was added at 5 mg/mL (SPF-PCB+). This buffer was used for washing, loading and maintaining the cells. The BSA-free fraction was used for diluting the cells in the cuvette for measurements of fluorescence.
The pellet was resuspended in 10 mL of SPF-PCB+ containing 2.2 uM fluo-3 (Molecular Probes) and incubated at room temperature for 35 minutes. Following the incubation period, the cells were pelleted by centrifugation. The resulting pellet was washed with SPF-PCB+. After this washing, cells were resuspended in SPF-PCB+ at a density of 1-2×10^6 cells/mL.
For recording fluorescent signals, 300 uL of cell suspension were diluted in 1.2 mL of SPF buffer containing 1 mM CaCl2 and 1 mg/mL of D-glucose. Measurements of fluorescence were performed at 37° C. with constant stirring using a spectrofluorimeter. Excitation and emission wavelengths were measured at 485 and 535 nm, respectively. To calibrate fluorescence signals, digitonin (5 mg/mL in ethanol) was added to obtain Fmax, and the apparent Fmin was determined by adding Tris-EGTA (2.5 M Tris-Base, 0.3 M EGTA). The concentration of intracellular calcium was calculated using the following equation: Intracellular calcium=[…]; where Kd=400 nM.
To determine the potential calcilytic activity of test compounds, cells were incubated with test compound (or vehicle as a control) for 90 seconds before increasing the concentration of extracellular Ca^2+ from 1 to 2 mM. Calcilytic compounds were detected by their ability to block, in a concentration-dependent manner, increases in the concentration of intracellular Ca^2+ elicited by extracellular Ca^2+.

IC50, > 10 µM:
CC(C)(Cc1ccc(Cl)s1)NC[C@@H](O)c1cc(CCC(=O)O)cc(F)c1F [Example 24, 3-[3-((1S)-2-{[2-(5-chloro-2-thienyl)-1,1-dimethylethyl]amino}-1-hydroxyethyl)-4,5-difluorophenyl]propanoic acid]
CC(C)(Cc1cccs1)NC[C@@H](O)c1cc(CCC(=O)O)cc(F)c1F [Example 21, 3-[3-((1S)-2-{[1,1-dimethyl-2-(2-thienyl)ethyl]amino}-1-hydroxyethyl)-4,5-difluorophenyl]propanoic acid]
CSc1ccc(CC(C)(C)NC[C@@H](O)c2cc(CCC(=O)O)cc(F)c2F)cc1 [Example 19, 3-{3-[(1S)-2-({1,1-dimethyl-2-[4-(methylthio)phenyl]ethyl}amino)-1-hydroxyethyl]-4,5-difluorophenyl}propanoic acid]
CC(C)(Cc1ccc(Br)cc1)NC[C@@H](O)c1cc(CCC(=O)O)cc(F)c1F [Example 23, 3-[3-((1S)-2-{[2-(4-bromophenyl)-1,1-dimethylethyl]amino}-1-hydroxyethyl)-4,5-difluorophenyl]propanoic acid]
Cc1ccc(CC(C)(C)NC[C@@H](O)c2cc(CCC(=O)O)cc(F)c2F)s1 [Example 16, 3-[3-((1S)-2-{[1,1-dimethyl-2-(5-methyl-2-thienyl)ethyl]amino}-1-hydroxyethyl)-4,5-difluorophenyl]propanoic acid]
COc1ccc(CCC(C)(C)NC[C@@H](O)c2cc(CCC(=O)O)cc(F)c2F)cc1 [Example 17, 3-{3-[(1S)-2-([1,1-dimethyl-3-[4-(methyloxy)phenyl]propyl}amino)-1-hydroxyethyl]-4,5-difluorophenyl]propanoic acid]
CC(C)(CCc1ccccc1)NC[C@@H](O)c1cc(CCC(=O)O)cc(F)c1F [Example 22, 3-(3-{(1S)-2-[(1,1-dimethyl-3-phenylpropyl)amino]-1-hydroxyethyl}-4,5-difluorophenyl)propanoic acid]
CC(C)(Cc1ccc(C(C)(C)C)cc1)NC[C@@H](O)c1cc(CCC(=O)O)cc(F)c1F [Example 20, 3-{3-[(1S)-2-({2-[4-(1,1-dimethylethyl)phenyl]-1,1-dimethylethyl}amino)-1-hydroxyethyl]-4,5-difluorophenyl}propanoic acid]
Cc1ccc(CC(C)(C)NC[C@@H](O)c2cc(CCC(=O)O)cc(F)c2F)cc1F [Example 18, 3-[3,4-difluoro-5-((1S)-2-{[2-(3-fluoro-4-methylphenyl)-1,1-dimethylethyl]amino}-1-hydroxyethyl)phenyl]propanoic acid]

target: T2, Human Parathyroid Calcium Receptor (“HuPCaR”) (Homo sapiens, UniProt P41180); assay: Calcium Receptor Binding Assay (3H ligand displacement, HEK 293 4.0-7 membranes); settings: 2 nM 3H compound, 4° C. 30 min, 10 uM was the limit of the assay
T2 construct: expressed in transfected cells; host or cells: HEK 293 4.0-7 (plasma membrane preparation)
T2 sequence (P41180 20-1078): T1 sequence (P41180 20-1078)
Experimental: HEK 293 4.0-7 cells stably transfected with the Human Parathyroid Calcium Receptor (“HuPCaR”) were scaled up in T180 tissue culture flasks. Plasma membrane was obtained by polytron homogenization or glass douncing in buffer (50 mM Tris-HCl pH 7.4, 1 mM EDTA, 3 mM MgCl2) in the presence of a protease inhibitor cocktail containing 1 uM Leupeptin, 0.04 uM Pepstatin, and 1 mM PMSF. Aliquoted membrane was snap frozen and stored at −80° C. ^3H labeled compound was radiolabeled to a radiospecific activity of 44 Ci/mmole and was aliquoted and stored in liquid nitrogen for radiochemical stability.
A typical reaction mixture contained 2 nM ^3H compound ((R,R)—N-4′-Methoxy-t-3-3′-methyl-1′-ethylphenyl-1-(1-naphthyl)ethylamine), or ^3H compound (R)—N-[2-Hydroxy-3-(3-chloro-2-cyanophenoxy)propyl]-1,1-dimethyl-2-(4-methoxyphenyl)ethylamine with 4-10 ug membrane in homogenization buffer containing 0.1% gelatin and 10% EtOH in a reaction volume of 0.5 mL. Incubation was performed in 12×75 polyethylene tubes in an ice water bath. To each tube 25 uL of test sample in 100% EtOH was added, followed by 400 uL of cold incubation buffer, and 25 uL of 40 nM ^3H-compound in 100% EtOH for a final concentration of 2 nM. The binding reaction was initiated by the addition of 50 uL of 80-200 ug/mL HEK 293 4.0-7 membrane diluted in incubation buffer, and allowed to incubate at 4° C. for 30 min. Wash buffer was 50 mM Tris-HCl containing 0.1% PEI. Nonspecific binding was determined by the addition of 100-fold excess of unlabeled homologous ligand, and was generally 20% of total binding. The binding reaction was terminated by rapid filtration onto 1% PEI pretreated GF/C filters using a Brandel Harvestor. Filters were placed in scintillation fluid and radioactivity assessed by liquid scintillation counting.

IC50, > 10 µM:
CC(C)(Cc1cccs1)NC[C@@H](O)c1cc(CCC(=O)O)cc(F)c1F [Example 21, 3-[3-((1S)-2-{[1,1-dimethyl-2-(2-thienyl)ethyl]amino}-1-hydroxyethyl)-4,5-difluorophenyl]propanoic acid]
COc1ccc(CCC(C)(C)NC[C@@H](O)c2cc(CCC(=O)O)cc(F)c2F)cc1 [Example 17, 3-{3-[(1S)-2-([1,1-dimethyl-3-[4-(methyloxy)phenyl]propyl}amino)-1-hydroxyethyl]-4,5-difluorophenyl]propanoic acid]
CC(C)(Cc1ccccc1)NC[C@@H](O)c1cc(CCC(=O)O)cc(F)c1F [Example 13, 3-(3-{(1S)-2-[(1,1-dimethyl-2-phenylethyl)amino]-1-hydroxyethyl}-4,5-difluorophenyl)propanoic acid]
